SMILES strings stand for the structures. Entries after “also recorded” stand apart in the source; their conditions may differ. Counter-ions that a name gives are not always drawn. Marks after values point to notes of the source that are not given here.

Assay [1] has as its system CD3+CD25+ T lymphocytes in human PBMC. As to the kind of experiment: PHA induction of CD25+ on CD3+ T cells, PBMC from asthma patients (Example 5). To be noted: for SI CD25: PHA 50 μg/ml, 24 hours. The class given is cell-based. As for the experimental part: (§1) Experiments were carried out to determine whether the immunoregulatory capacity of two commonly-used H1-inhibitory antihistamines: cetirizine dihydrochloride (CTZ/Zyrtec) and azelastine ([…]) is potentiated by the platelet activating factor receptor (PAFR) antagonist and free radical scavenger Ginkgolide B (GB). […] Each drug was first evaluated independently over a 3-log dose range from 10^-8-10^-6 M.

Assay [2] relates to CD3+HLA-DR+ T lymphocytes in human PBMC. As to the kind of experiment: PHA induction of HLA-DR+ on CD3+ T cells, PBMC from asthma patients (Example 5). The assay is classed as cell-based. To be noted: for SI HLA-DR: PHA 50 μg/ml, 24 hours. As for the experimental part: as §1
The test system of assay [3] is CD3+CD25+ cells in human PBMC. As to the kind of experiment: T lymphocyte activation (CD3+CD25+) in PHA-stimulated PBMC of asthma patients (Example 6). The assay is classed as cell-based. To be noted: PHA 50 μg/ml, 24 hours; 10^−5 M. As for the experimental part: Experiments were carried out to determine whether formulations based on the platelet activating factor receptor (PAFR) antagonist and free radical scavenger Ginkgolide B (GB) in combination with the antioxidant carotenoid astaxanthin (ASX) suppress T cell activation in the same dose range as two commonly-used antihistamines: cetirizine dihydrochloride (CTZ/Zyrtec) and azelastine ([…]). […] Results are reported as stimulation indices (SI) of % CD3+CD25+ cells in cultures treated with PHA alone to % CD3+CD25+ cells in each drug-supplemented culture. […] Subjects for this study included 12 patients diagnosed with atopic asthma, 7 male and 5 female, ranging in age from 21 to 40 years (mean 28±1.8 years). Disease duration ranged from 2 to 12 years. Atopy was defined on the basis of one or more positive skin prick tests to a range of 20 allergens. None of the patients had received systemic therapy for at least 6 weeks prior to blood collection. The mean serum IgE was 335 (170-480) IU/ml. Venous blood for each subject was collected in polyethylene tubes containing EDTA during a one hour morning time interval. PBMC were separated by Ficoll-paque (Pharmacia, Uppsala, Sweden) density gradient centrifugation. Cells were washed and suspended in RPMI 1640 medium (Gibco BRL, Gaithersburg, Md.) at density of 1×10^6 cells/ml. PBMC were stimulated with 50 μg/ml Phytohemaglutinin (PHA) (Sigma Immunopharmaceuticals, St. Lous Mo.), or PHA plus 10^-8-10^-5 M astaxanthin (Natural Alternatives International (NAI) Inc., San Marcos Calif.); or ginkgolide B 10^-8-10^-6 M (NAI San Marcos Calif.); or selected combinations of ASX plus GB. Comparison of ASX and GB effects on T cell activation were made with two other pharmacological agents with anti-asthmatic properties by treating cells with 10^-7-10^-4 M cetirizine dihydrochloride (Pfizer Pharmaceuticals, Norwich Conn.); or 10^-7-10^-4 M azalestine hydrochloride (Wallace Pharmaceuticals, Somerset N.J.), followed by evaluation of cultures for the same biological endpoints as ASX/GB-treated cells. Each reagent was added at the outset of a 24 hours culture period, followed by harvest of cellular fraction for immunophenotyping studies. […] Two-color Flow cytometry was conducted using a Coulter Epics XL automated flow cytometer (Coulter Scientific, Hialeah, Fla., USA). Isotypic controls for the monoclonal antibodies (mAb) used to detect antigens of interest were established for each cell preparation. Positive analysis regions for cells expressing specific surface markers were set against controls and specific binding of fluorophore-conjugated mAb was analyzed by cytofluorography according to standard methods recommended by the manufacturer. Lymphocyte subpopulations were identified by position on forward and side scatter plots and live-gated. Expression of each antigen was reported as percentage cells positive for a particular T cell subpopulation defined by expression of CD3 (T lymphocyte marker) plus CD25, plus or minus standard error. Statistical analysis was performed using an independent t-test. All statistical analyses were performed using the SPSS for Windows statistical package (Norusis/SPSS, Inc.). […] The capacity of formulations evaluated in this study to suppress immune activation was measured as a stimulation index (SI), defined as the ratio of […].

Assay [4] concerns ovalbumin(OA)-induced asthma in guinea pigs. Put plainly: Ovalbumin-induced asthma in guinea pigs: inflammatory cells in BAL fluid. The class given is in vivo, guinea pig. The settings on record: for Eosinophils / Macrophages / Neutrophils: BAL fluid 24 hours after OV challenge. As for the experimental part:
The effect combinations of vitamin C, astaxanthin, and ginkolide on asthma-associated disease parameters ovalbumin(OA)-induced asthma in guinea pigs was evaluated. Twenty-four hours following OA challenge, animals are sacrificed and numbers of inflammatory cells (eosinophils, neutrophils, macrophages) are measured in bronchoalveolar lavage (BAL) fluid; and cAMP and cGMP concentrations in the lung tissue. The experiments were carried out as follows. Male Hartley guinea pigs (250-350 g) were sensitized by intramuscular injections of 0.35 ml of a 5% (W/V) ovalbumin (OA)/saline solution into each thigh on days 1 and 4. Guinea pigs were ready for asthmatic challenge after 25 days of ovalbumin injection. Asthmatic challenge was carried out with ovalbumin aerosol, and bronchoalveolar lavage (BAL) was done 24 hours later. The numbers of eosinophils, neutrophils, and macrophages in the BAL fluid were counted. Twenty-four hours after the aerosol OA challenge, guinea pigs were killed by cervical dislocation and exsanguinated by severing the axillary arteries. Lungs were lavaged with 50 ml of DulBecco's phosphate-buffered saline (aliquots of 10 ml), which were aspirated after gentle chest massage. BAL fluid was centrifuged at 2200 rpm (1100×g) for 10 min, supernatant was aspirated, and pellets were resuspended in 5 ml 0.25% NaCl to lyse residual erythrocytes. This dispersion was centrifuged at 2200 rpm (1100×g) for 10 min, supernatant was aspirated, and pellets were resuspended 5 ml 0.9% NaCl. Total cell counts were done by hemocytometry using trypan blue stain. Slides were prepared on a Shandon Cytospin 2 (Pittsburgh, Pa.) at 300 rpm for 5 min, fixed and stained. Differential cell counts were done using standard morphologic criteria to classify cells as eosinophils, neutrophils, or macrophages, and the results were expressed in cell numbers. The dose-responsive effect of AX, EGb761, and vitamin C administered independently for suppression of asthma-associated parameters in allergen-induced, asthmatic guinea pigs was determined. Ibuprophen (IB) was used as the positive control. Concentration of inflammatory cells in bronchoalveolar lavage (BAL) fluid and levels of cAMP and cGMP in lung tissue were measured in guinea pigs 24 hours following challenge with OV. Data is reported as mean±SD of measurements taken in 6 animals per dosage cohort. *p<0.05 compared to corresponding values of OV antigen-challenged, drug-free control group. The dose-responsive effect of AX, EGb761, and vitamin C administered in combination for suppression of asthma-associated parameters in allergen-induced, asthmatic guinea pigs was determined. The combination of these three components was given each day for each guinea pig as a “cocktail”. Concentration of inflammatory cells in bronchoalveolar lavage (BAL) fluid and levels of cAMP and cGMP in lung tissue were measured in guinea pigs 24 hours following challenge with OV. Data is reported as mean±SD of measurements taken in 6 animals per dosage cohort. *p<0.05 compared to corresponding values of OV antigen-challenged, drug-free control group.

Assay [5] relates to cAMP and cGMP concentrations in the lung tissue. Put plainly: Ovalbumin-induced asthma in guinea pigs: cAMP and cGMP in lung tissue (radioimmunoassay). The assay is classed as in vivo, guinea pig. To be noted: lung tissue 24 hours after OV challenge. As for the experimental part: The effect combinations of vitamin C, astaxanthin, and ginkolide on asthma-associated disease parameters ovalbumin(OA)-induced asthma in guinea pigs was evaluated. Twenty-four hours following OA challenge, animals are sacrificed and numbers of inflammatory cells (eosinophils, neutrophils, macrophages) are measured in bronchoalveolar lavage (BAL) fluid; and cAMP and cGMP concentrations in the lung tissue. The experiments were carried out as follows. Male Hartley guinea pigs (250-350 g) were sensitized by intramuscular injections of 0.35 ml of a 5% (W/V) ovalbumin (OA)/saline solution into each thigh on days 1 and 4. Guinea pigs were ready for asthmatic challenge after 25 days of ovalbumin injection. Asthmatic challenge was carried out with ovalbumin aerosol, and bronchoalveolar lavage (BAL) was done 24 hours later. The numbers of eosinophils, neutrophils, and macrophages in the BAL fluid were counted. Biopsies from lung tissues, cAMP and cGMP were measured using commercially available radioimmunoassay kits (Amersham). Immediately after sampling, lung biopsies were frozen by means of a Wollenberger clamp prechilled in liquid nitrogen. Samples were powdered with a pestle and mortar in liquid nitrogen and trichloro acetic acid (TCA) was added to the powdered frozen samples ([…] of tissue). Samples were further homogenized in the frozen TCA in the braying mortar and then centrifuged at 14,000×g for 10 min at 4° C. The supernatants were extracted 6 times in water-saturated diethylether, evaporated and assayed for cGMP by radioimmunoassay using liquid scintillation counter (Packard, Tri-Carb 2100TR). The dose-responsive effect of AX, EGb761, and vitamin C administered independently for suppression of asthma-associated parameters in allergen-induced, asthmatic guinea pigs was determined. Ibuprophen (IB) was used as the positive control. Concentration of inflammatory cells in bronchoalveolar lavage (BAL) fluid and levels of cAMP and cGMP in lung tissue were measured in guinea pigs 24 hours following challenge with OV. […] The dose-responsive effect of AX, EGb761, and vitamin C administered in combination for suppression of asthma-associated parameters in allergen-induced, asthmatic guinea pigs was determined. The combination of these three components was given each day for each guinea pig as a “cocktail”. Concentration of inflammatory cells in bronchoalveolar lavage (BAL) fluid and levels of cAMP and cGMP in lung tissue were measured in guinea pigs 24 hours following challenge with OV.

For `O=C(O)COCCN1CCN(C(c2ccccc2)c2ccc(Cl)cc2)CC1` (centres unmarked) [CTZ, cetirizine dihydrochloride], the “decrease in SI for CD25+” value in assay [1] (10^−8 M) was determined as 29%. Besides, the “SI CD25” value in assay [1] (10^−6 M) is 0.93 ± 0.06; in assay [1] (10^−7 M), 0.88 ± 0.14; in assay [1] (10^−8 M), 0.71 ± 0.12. The “decrease in SI for HLA-DR” value in assay [2] (10^−8 M) amounted to 53%. Moreover, the results for the “SI HLA-DR” value in assay [2] (10^−6 M), in assay [2] (10^−7 M) and in assay [2] (10^−8 M) were 0.70 ± 0.04, 0.58 ± 0.11 and 0.47 ± 0.13, respectively. Also, the “SI (CD3+CD25+)” value in assay [3] was determined as 0.78±0.11.
As for `O=C1O[C@H]([C@@H](O)CO)C(O)=C1O` [Vitamin C, ascorbic acid], the Eosinophils in assay [4] (50 mg/kg) is given as 5.5 ± 0.5 cell × 10^6/animal; in assay [4] (100 mg/kg), 5.5 ± 0.8 cell × 10^6/animal; in assay [4] (200 mg/kg) it was 4.8 ± 1.1 cell × 10^6/animal; in assay [4] (400 mg/kg), 3.5 ± 0.9* cell × 10^6/animal. Moreover, the Macrophages in assay [4] (50 mg/kg) is reported as 9.5 ± 0.9 cell × 10^6/animal; in assay [4] (100 mg/kg) it was 9.8 ± 0.9 cell × 10^6/animal; in assay [4] (200 mg/kg), 9.2 ± 0.8 cell × 10^6/animal; in assay [4] (400 mg/kg), 7.2 ± 1.5* cell × 10^6/animal. Also, the Neutrophils in assay [4] (50 mg/kg) came out at 5.4 ± 0.6 cell × 10^5/animal; in assay [4] (100 mg/kg), 5.6 ± 0.8 cell × 10^5/animal; in assay [4] (200 mg/kg), 5.0 ± 0.8 cell × 10^5/animal; in assay [4] (400 mg/kg) it was 4.7 ± 0.9 cell × 10^5/animal. For the same molecule, the “protection against OV-induced asthma” value in assay [4] (components used separately: 10 mg/kg AX, 200 mg/kg vit C, 10 mg/kg GB) is given as “failed to protect; also recorded: failed to reduce the severity of asthma”. Further, the cAMP in assay [5] (50 mg/kg) is on record as 6.8 ± 0.5 pmol (mg protein)^−1; in assay [5] (100 mg/kg) it was 7.1 ± 0.8 pmol (mg protein)^−1; in assay [5] (200 mg/kg) it was 7.9 ± 0.9 pmol (mg protein)^−1; in assay [5] (400 mg/kg) it was 7.9 ± 0.8 pmol (mg protein)^−1. Further, the cGMP in assay [5] (50 mg/kg) is on record as 1.1 ± 0.2 pmol (mg protein)^−1; in assay [5] (100 mg/kg) it was 1.0 ± 0.2 pmol (mg protein)^−1; in assay [5] (200 mg/kg), 1.2 ± 0.2 pmol (mg protein)^−1; in assay [5] (400 mg/kg) it was 1.5 ± 0.2 pmol (mg protein)^−1.
In the case of `CC(C)Cc1ccc(C(C)C(=O)O)cc1` (centres unmarked) [IB, Ibuprophen, reference compound], the Eosinophils in assay [4] (10 mg/kg) is 5.4 ± 0.8 cell × 10^6/animal; in assay [4] (100 mg/kg), 4.7 ± 0.6 cell × 10^6/animal; in assay [4] (500 mg/kg) it was 3.0 ± 0.8* cell × 10^6/animal; in assay [4] (1000 mg/kg), 2.9 ± 0.5* cell × 10^6/animal. Moreover, the Macrophages is 9.5 ± 0.8 cell × 10^6/animal in assay [4] (10 mg/kg), 9.0 ± 1.3 cell × 10^6/animal in assay [4] (100 mg/kg), 4.7 ± 1.3* cell × 10^6/animal in assay [4] (500 mg/kg) and 4.3 ± 0.9* cell × 10^6/animal in assay [4] (1000 mg/kg). Moreover, the Neutrophils was 5.7 ± 0.7 cell × 10^5/animal in assay [4] (10 mg/kg), 5.0 ± 0.7 cell × 10^5/animal in assay [4] (100 mg/kg), 3.1 ± 0.9* cell × 10^5/animal in assay [4] (500 mg/kg) and 3.1 ± 0.5* cell × 10^5/animal in assay [4] (1000 mg/kg). Besides, the cAMP in assay [5] (10 mg/kg) was 7.1 ± 0.6 pmol (mg protein)^−1; in assay [5] (100 mg/kg) it was 7.3 ± 0.9 pmol (mg protein)^−1; in assay [5] (500 mg/kg), 8.2 ± 0.8 pmol (mg protein)^−1; in assay [5] (1000 mg/kg) it was 8.1 ± 0.9 pmol (mg protein)^−1. Moreover, the cGMP in assay [5] (10 mg/kg) is 1.1 ± 0.2 pmol (mg protein)^−1; in assay [5] (100 mg/kg), 1.1 ± 0.2 pmol (mg protein)^−1; in assay [5] (500 mg/kg), 1.4 ± 0.2 pmol (mg protein)^−1; in assay [5] (1000 mg/kg) it was 1.6 ± 0.2 pmol (mg protein)^−1.

The values above are taken from US20060127505A1, “Anti-inflammatory formulations” (priority 2002, published 2006).
